The results in this text go back to patent publication EP4635958A1, “PYRIMIDINE-CONTAINING POLYCYCLIC DERIVATIVE INHIBITOR, AND PREPARATION METHOD THEREFOR AND USE THEREOF” (Shanghai Hansoh Biomedical Co., Ltd., priority 2022, dated 2024).

One series has as its system AsPC-1. Description: Inhibition of proliferation of KRAS G12D mutant tumor cell line AsPC-1 (CellTiter-Glo). In kind it is cell-based. In outline:
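KRAS G12D-mutant AsPC-1 cells plated overnight at 37 °C/5% CO2, then exposed to serial compound dilutions (DMSO/medium, vehicle control) for about 72 h. Viability read by CellTiter-Glo luminescence; inhibition rate vs concentration fitted by nonlinear regression for IC50.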

The subject of series [1] is human pancreatic cancer cell line (HPAC). Description: Antitumor efficacy in mouse transplanted tumor model of human pancreatic cancer cell line (HPAC). Conditions: HPAC xenograft, 100mpk, PO*BID; for Tumor volume (mm^3, Mean ± SD) Day 0: Day 0 (baseline). In kind it is in vivo, mice (BALB/c nude). The text has this: 8-10 week old female conventional immunodeficient mice (BALB/c nude) with a body weight of 18 g-22 g were used as experimental animals, and a transplanted tumor model of human pancreatic cancer cell line (HPAC) was used to conduct in vivo efficacy experiments to test the anti-tumor results of the example compounds after gavage administration.
The example compounds of the present invention, made in house.
A certain amount of the example compound was weighed, and an appropriate amount of 10% vehicle (Solutol HS15) was added. The mixture was stirred on a magnetic stirrer for 0.5 h to formulate a homogeneous suspension at the desired concentration.
Human pancreatic cancer cell line (HPAC) was derived from COBIOER BIOSCIENCES CO., LTD, cultured on DMEM/F12 medium (Gibco, 11330-032) supplemented with 10% fetal calf serum (Gibco, 10091-148), 1×Insulin (51500-056, Gibco) and 10 ng/ml of EGF (PHG0311, Gibco) and observed under a microscope (Thermo Fisher, 311). The cells were routinely passaged when the cells reached 80%-90% confluence in the culture flask. The passaged cells were cultured in a 37°C, 5% CO2 incubator (Thermo Fisher, 311).
Under aseptic conditions, human pancreatic cancer cells (HPAC) in the logarithmic growth phase were harvested using 0.25% trypsin-EDTA (Gibco, 25200-056), washed and resuspended with phosphate buffer. The cell suspension was mixed with Matrigel (Corning, 356234) at a 1 : 1 ratio (v/v) and implanted subcutaneously into the right anterior dorsal region of immunodeficient mice (BALB/c nude). Each mouse was inoculated with 3*10^6 cells in a volume of 100 microliters (µL). After inoculation, when the tumor volume reached 100-200 mm^3, the mice would be evenly randomized into 5 groups based on the tumor size, with 5 mice per group, for in vivo efficacy experiments. The negative control group was the vehicle group.
Mode of administration: The example compounds were administered orally.
Twice a week, the long and short diameters of the tumor were measured using a vernier caliper, and the tumor volume (mm^3) was calculated using the formula: V = 0.5*D*d*d, where D and d are the long and short diameters of the tumor, respectively. The anti-tumor efficacy was determined by dividing the average increase in tumor volume of compound-treated animals by the average increase in tumor volume of untreated animals. The calculation formula for tumor inhibition rate was: When there is no tumor regression, TGI(%) = 100-[(Vt-V0) administration group/(Vt-V0) vehicle control group]*100%. When tumor regression occurs, TGI(%) = [1-(Vt-V0) administration group/V0 vehicle control group]*100%. All animals were euthanized after the experiment.

The nature of series [2]: Plasma stability test, mouse plasma.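 For all read-outs here: test compound quantified by LC-MS using positive-mode electrospray ionization and MRM scanning, with an internal standard added in acetonitrile.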 In kind it is in vitro ADME. Conditions: Mouse plasma, 37°C; for half-life: read-out: t1/2 (converted).
Experimental: (§1) Liquid chromatography-mass spectrometer, centrifuge, vortexer, pipette, continuous dispenser, 96-well plate, 50% methanol aqueous solution, acetonitrile solution containing internal standard, blank matrix (plasma of rat, dog, or human), Propantheline (propantheline bromide), Mevinolin (lovastatin), and test compound.
(§2) After whole blood was collected from animals or humans, it was placed in a test tube containing an anticoagulant and centrifuged at 3500 rpm for 10 min to collect the upper pale yellow plasma.
(§3) The compound was weighed and the stock solution was formulated with DMSO and the working solution was formulated with 100 mM phosphate buffer.
(§4) • Instrument: API4000 liquid chromatography-mass spectrometer, AB Company, USA; • the ion source was electrospray ionization source (ESI); • drying gas (N2) temperature was 500°C; • electrospray voltage was 5500V; • the detection method was positive ion detection; • the scanning method was selected reaction monitoring (MRM); • the scanning time was 0.1s.
The nature of series [3]: Plasma stability test, dog plasma.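 For all read-outs here: parent compound left in dog plasma quantified by LC-MS with positive electrospray ionization, selected reaction monitoring and an internal standard.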 It counts as in vitro ADME. The following applies: Dog plasma, 37°C; for half-life: read-out: t1/2 (converted).
Experimental: as §1, §2, §3, §4
The mark [4] stands for this setting: Homo sapiens, ASPC1, about 72 h.

Structures can show the parent of a compound that is named as a salt.

Turning to “4-((5S,5aS,6R,9S)-12-((1-((((R)-4-(difluoromethylene)-2-methylpiperidin-1-yl)methyl)cyclopropyl)methoxy)-1-fluoro-5-(methyl-d3)-5a,6,7,8,9,10-hexahydro-5H-4-oxa-3,10a,11,13,14-pentaaza-6,9-methylnaphtho[1,8-ab]hept-2-yl)-5-ethynyl-6-fluoronaphthalen-2-ol [Example 162]”, the IC50 (usually the midpoint of a concentration-inhibition curve) in the series with AsPC-1 (about 72 h) worked out at 4 nM. Besides, in series [1] (Table 11), the “Tumor volume (mm^3, Mean ± SD) Day 0” value is 210 mm^3; the “TGI(%) Day 21” value worked out at 126.15%; the “Tumor volume (mm^3, Mean ± SD) Day 21” value is given as 155 mm^3; the “ΔT/ΔC(%) Day 21” value is recorded as 13.54%.
In the case of `C#Cc1c(F)ccc2cc(O)cc(-c3nc4c5c(nc(OCC6(CN7CCC(=C(F)F)CC7)CC6)nc5c3F)N3C[C@H]5CC[C@H](N5)[C@H]3CO4)c12` [Example 1-1, 4-((5aS,6S,9R)-12-((1-((4-(difluoromethylene)piperidin-1-yl)methyl)cyclopropyl)methoxy)-1-fluoro-5a,6,7,8,9,10-hexahydro-5H-4-oxa-3,10a,11,13,14-pentaaza-6,9-methylenenaphtho[1,8-ab]heptalene-2-yl)-5-ethynyl-6-fluoronaphthalen-2-ol], in series [2], the “Remaining rate (%) 0 min” value came to 100.00%, the “Remaining rate (%) 15 min” value stood at 94.74%, the “Remaining rate (%) 30 min” value was 96.27% and the “Remaining rate (%) 60 min” value is listed as 96.21%. Besides, in series [2], the “Remaining rate (%) 120 min” value was 98.50% and the half-life was 146 h. Moreover, in series [3], the “Remaining rate (%) 0 min” value was found to be 100.00%, the “Remaining rate (%) 15 min” value is reported as 100.25%, the “Remaining rate (%) 30 min” value came to 105.57% and the “Remaining rate (%) 60 min” value was determined as 104.40%. In series [3], the “Remaining rate (%) 120 min” value came out at 93.99% and the half-life was 48.9 h.
For `C#Cc1c(F)ccc2cc(O)cc(-c3nc4c5c(nc(OCC6(CN7CCC(=C(F)F)CC7)CC6)nc5c3F)N3C[C@H]5CC[C@H](N5)[C@H]3[C@H](C)O4)c12` [Example 19-1, 4-((5S,5aS,6S,9R)-12-((1-((4-(difluoromethylene)piperidin-1-yl)methyl)cyclopropyl)methoxy)-1-fluoro-5-methyl-5a,6,7,8,9,10-hexahydro-5H-4-oxa-3,10a,11,13,14-pentaaza-6,9-methylnaphtho[1,8-ab]hept-2-yl)-5-ethynyl-6-fluoronaphthalene-2-ol], in series [2], the “Remaining rate (%) 0 min” value came out at 100.00%, the “Remaining rate (%) 15 min” value is recorded as 101.30%, the “Remaining rate (%) 30 min” value is on record as 98.20% and the “Remaining rate (%) 60 min” value is 91.51%. Besides, in series [2], the “Remaining rate (%) 120 min” value worked out at 92.09% and the half-life is 27.4 h. The IC50 in the series with AsPC-1 (setting [4]) came to 3.1 nM. Besides, in series [3], the “Remaining rate (%) 0 min” value amounted to 100.00%, the “Remaining rate (%) 15 min” value is 95.89%, the “Remaining rate (%) 30 min” value was 101.96% and the “Remaining rate (%) 60 min” value turned out to be 101.84%. Moreover, in series [3], the “Remaining rate (%) 120 min” value stood at 94.59% and the half-life is 75.5 h.
As to `C#Cc1c(F)ccc2cc(O)cc(-c3nc4c5c(nc(OCC6(CN7CCC(=NOC)CC7)CC6)nc5c3F)N3C[C@H]5CC[C@H](N5)[C@H]3[C@H](C)O4)c12` [Example 35-1, 1-((1-((((5S,5aS,6S,9R)-2-(8-ethynyl-7-fluoro-3-hydroxynaphthalen-1-yl)-1-fluoro-5-methyl-5a,6,7,8,9,10-hexahydro-5H-4-oxa-3,10a,11,13,14-pentaaza-6,9-methylenenaphtho[1,8-ab]heptalen-12-yl)oxo)methyl)cyclopropyl)methyl)piperidin-4-one O-methyloxime formate], the IC50 with AsPC-1 (setting [4]) was 3.8 nM. Further, in series [1] (Table 12), the “Tumor volume (mm^3, Mean ± SD) Day 0” value came out at 469 mm^3; the “TGI(%) Day 14” value worked out at 76.39%; the “ΔT/ΔC(%) Day 14” value is recorded as 61.00%; the “Tumor volume (mm^3, Mean ± SD) Day 21” value amounted to 585 mm^3.
For the molecule `C#Cc1c(F)ccc2cc(O)cc(-c3nc4c5c(nc(OCC6(CN7CCC(=CF)CC7)CC6)nc5c3F)N3C[C@H]5CC[C@H](N5)[C@H]3[C@H](C)O4)c12` [Example 129, 5-ethynyl-6-fluoro-4-((5S,5aS,6S,9R)-1-fluoro-12-((1-((4-(fluoromethylene)piperidin-1-yl)methyl)cyclopropyl)methoxy)-5-methyl-5a,6,7,8,9,10-hexahydro-5H-4-oxa-3,10a,11,13,14-pentaaza-6,9-methylnaphtho[1,8-ab]hept-2-yl)naphthalen-2-ol], in series [2], the “Remaining rate (%) 0 min” value is listed as 100.00%, the “Remaining rate (%) 15 min” value turned out to be 97.30%, the “Remaining rate (%) 30 min” value came to 103.47% and the “Remaining rate (%) 60 min” value was found to be 104.94%. In addition, in series [2], the “Remaining rate (%) 120 min” value was 91.62% and the half-life is 37.6 h. In the series on AsPC-1 (setting [4]), the IC50 turned out to be 3.6 nM. In series [1] (Table 11), the “Tumor volume (mm^3, Mean ± SD) Day 0” value was found to be 209 mm^3; the “TGI(%) Day 21” value is given as 97.63%; the “Tumor volume (mm^3, Mean ± SD) Day 21” value came out at 231 mm^3; the “ΔT/ΔC(%) Day 21” value came to 20.27%. For the same molecule, in series [3], the t1/2 entry is on record as “∞”, the “Remaining rate (%) 0 min” value was 100.00%, the “Remaining rate (%) 15 min” value turned out to be 100.48% and the “Remaining rate (%) 30 min” value came to 100.22%. For the same molecule, in series [3], the “Remaining rate (%) 60 min” value was found to be 97.42% and the “Remaining rate (%) 120 min” value was found to be 110.22%.
As for `[2H]C([2H])([2H])[C@@H]1Oc2nc(-c3cc(O)cc4ccc(F)c(C#C)c34)c(F)c3nc(OCC4(CN5CCC(=CF)CC5)CC4)nc(c23)N2C[C@H]3CC[C@H](N3)[C@@H]12` [Example 164], in series [2], the “Remaining rate (%) 0 min” value is on record as 100.00%, the “Remaining rate (%) 15 min” value is recorded as 99.34%, the “Remaining rate (%) 30 min” value is given as 95.56% and the “Remaining rate (%) 60 min” value is 101.65%. In series [2], the “Remaining rate (%) 120 min” value amounted to 100.99% and the half-life is 149 h. Besides, the IC50 with AsPC-1 (setting [4]) came to 6.6 nM. Also, in series [3], the “Remaining rate (%) 0 min” value is 100.00%, the “Remaining rate (%) 15 min” value was determined as 92.40%, the “Remaining rate (%) 30 min” value was found to be 94.94% and the “Remaining rate (%) 60 min” value is 96.81%. Besides, in series [3], the “Remaining rate (%) 120 min” value amounted to 91.42% and the half-life was 51.9 h.
Regarding `CON=C1CCN(CC2(COc3nc4c5c(nc(-c6cc(N)cc(Cl)c6C(F)(F)F)c(F)c5n3)O[C@@H](C)[C@@H]3[C@@H]5CC[C@H](CN43)N5)CC2)CC1` [Example 337, 1-((1-((((5S,5aS,6S,9R)-2-(5-amino-3-chloro-2-(trifluoromethyl)phenyl)-1-fluoro-5-methyl-5a,6,7,8,9,10-hexahydro-5H-4-oxa-3,10a,11,13,14-pentaaza-6,9-methylnaphtho[1,8-ab]heptene-12-yl)oxy)methyl)cyclopropyl)methyl)piperidin-4-one O-methyloxime], the IC50 in the series with AsPC-1 (setting [4]) was determined as 1.2 nM.
For `[2H]C([2H])([2H])[C@@H]1Oc2nc(-c3cc(N)cc(Cl)c3C(F)(F)F)c(F)c3nc(OCC4(CN5CCC(=NOC)CC5)CC4)nc(c23)N2C[C@H]3CC[C@H](N3)[C@@H]12` [Example 339], the 50% inhibitory concentration (IC50) in the series on AsPC-1 (setting [4]) is 3.5 nM. In series [1] (Table 12), the “Tumor volume (mm^3, Mean ± SD) Day 0” value is 469 mm^3; the “TGI(%) Day 14” value is 160.47%; the “ΔT/ΔC(%) Day 14” value amounted to 19.36%; the “Tumor volume (mm^3, Mean ± SD) Day 21” value is 185 mm^3.
